Tests used:
PHD2181-417 = PHD2181-417 (Homo sapiens (Human), UniProt Q9GZT9); test: PHD enzymatic assay ([14C]-succinic acid production); type: biochemical; details: purified PHD2181-417, HIF-1α peptide substrate, 30 min pre-incubation; average of results
Protocol: Expression and Purification of PHD2181-417
The human PHD2 expression construct containing amino acids 181-417 of GenBank Accession ID NM_022051 was cloned into a pBAD vector (Invitrogen), incorporating both an N-terminal histidine tag and a Smt3-tag, both of which are cleaved by Ulp1. Protein production was achieved by expression in BL21 cells grown in Terrific Broth containing 100 μg/ml ampicillin. Cell cultures were inoculated at 37° C. and grown to an OD600 of 0.8. Cultures were induced with 0.1% arabinose and grown overnight at 20° C. with continuous shaking at 225 rpm. Cells were then harvested by centrifugation and stored at −80° C. Cell pellets were suspended in Buffer A (50 mM Tris-HCl pH 7.2, 100 mM NaCl, 100 mM L-arginine, 1 mM TCEP, 0.05% (w/v) NP-40, 50 mM imidazole) followed by the addition of lysozyme and benzonase. Cells were lysed by sonication and the lysate was cleared by centrifugation (15,000 rpm, 90 min, 4° C.). The protein was purified by nickel affinity chromatography using a HisTrap Crude FF column (GE Healthcare). Samples were eluted in Buffer A with a 50-200 mM imidazole gradient. Cleavage of the Smt tag with Ulp1 protease was achieved via overnight incubation with dialyzing against Buffer A. The PHD2181-417 sample was then passed over a second HisTrap Crude FF column (GE Healthcare) to remove uncleaved protein. The flow-through was then dialyzed into 50 mM MES pH 6.0, 1 mM TCEP, 5 mM NaCl for ion exchange chromatography on a HiTrap SP Cation Exchange column (GE Healthcare). The PHD2181-417 protein was eluted with a 0-0.2 M NaCl gradient. Fractions were pooled for further purification by size exclusion chromatography over a Superdex 75 Size Exclusion Column (GE Healthcare). Final protein was concentrated to 4 mg/ml and dialyzed in 10 mM PIPES pH 7.0, 100 mM NaCl, 0.5 mM TCEP.
(10 μM, California Peptide Research Inc., Napa, Calif.), and [5-^14C]-2-oxoglutaric acid (50 mCi/mmol, Moravek Chemicals, Brea, Calif.) in reaction buffer (40 mM Tris-HCl, pH 7.5, 0.4 mg/ml catalase, 0.5 mM DTT, 1 mM ascorbate) for 10 minutes. Compounds were pre-incubated for 30 min before starting the reaction (all test compounds were dissolved at 10 mM in 100% DMSO (w/v) and were tested with final compound concentrations at 100 μM in 1% DMSO (w/v)). The reaction was stopped by addition of 50 μl of 70 mM H3PO4 and 50 μl of 500 mM NaH2PO4, pH 3.2. Detection of [^14C]-succinic acid was achieved by separating from [5-^14C]-2-oxoglutaric acid by incubating the reaction mixture with 100 μl of 0.16 M DNP prepared in 30% perchloric acid. Next, 50 μl of unlabeled 20 mM 2-oxoglutaric acid/20 mM succinic acid, serving as carrier for the radioactivity, was added to the mixture, and was allowed to proceed for 30 minutes at room temperature. The reaction was then incubated with 50 μl of 1 M 2-oxoglutaric acid for 30 additional minutes at room temperature to precipitate the excess DNP. The reaction was then centrifuged at 2800×g for 10 minutes at room temperature to separate [^14C]-succinic acid in the supernatant from the precipitated [^14C]-dinitrophenylhydrazone. Fractions of the supernatant (400 μI) were counted using a beta counter (Beckman Coulter, Fullerton, Calif.). Inhibition of PHD2181-417 activity was measured as a decrease in succinic acid production. The IC50 values were estimated by fitting the data to a three-parameter logistic function using GraphPad Prism, version 4.02 (Graph Pad Software, San Diego, Calif.).

[1] = test system: Erythropoietin secretion, Hep-3B cells; test: Cellular assay: EPO secretion in Hep-3B cells; type: cell-based; details: Homo sapiens, Hep3B, 100 μM compound, 24 hours, percent of EPO secretion relative to assay control compound 7-[(4-Chloro-phenyl)-(5-methyl-isoxazol-3-ylamino)-methyl]-quinolin-8-ol, read-out: Cellular % EPO Stimulation
Protocol: Hep-3B cells (ATCC, Manassas, Va.) were plated in 96-well plates at 20,000 cells per well in 100 μl of DMEM containing 10% fetal bovine serum, 1% non-essential amino acids, 50 IU/mL of penicillin and 50 μg/mL of streptomycin (all cell culture reagents from Invitrogen, Carlsbad, Calif.). Twenty-four hours after plating, compounds were added and incubated for an additional 24 hours. All compounds were tested with final compound concentrations at 100 μM. Fifty microliters of the supernatant was then transferred to a human Hypoxia assay kit (Meso-Scale Discovery, Gaithersburg, Md.). Erythropoietin in the supernatant was detected according to the manufacturer's instructions as follows. EPO detection plates were blocked with 3% BSA in PBS overnight and 50 μl of the supernatant was incubated at room temperature in an orbital shaker for 2 h. Twenty-five microliters of 0.5 μg/ml anti-EPO detection antibody was added for 2 hours at room temperature in an orbital shaker. After 3 washes in PBS, 150 μl of 1× read buffer is added and the plate is then read on the MSD SECTOR instrument. Data was analyzed by determining the percent of EPO secretion in the presence of 100 μM compound relative to an assay control compound, 7-[(4-Chloro-phenyl)-(5-methyl-isoxazol-3-ylamino)-methyl]-quinolin-8-ol.

Sequence of PHD2181-417 (Q9GZT9 181-417): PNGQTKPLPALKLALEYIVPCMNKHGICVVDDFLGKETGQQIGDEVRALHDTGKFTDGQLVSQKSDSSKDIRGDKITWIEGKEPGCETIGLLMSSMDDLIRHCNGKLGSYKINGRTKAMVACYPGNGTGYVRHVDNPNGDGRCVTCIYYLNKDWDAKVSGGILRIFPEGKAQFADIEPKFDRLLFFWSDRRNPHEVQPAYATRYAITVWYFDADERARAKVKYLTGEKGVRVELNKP

Structure (SMILES) | Enzyme pIC50 (PHD2181-417) | activation at 100 µM [1]
CCN(CC)c1nc(-n2cc(C(=O)O)cn2)nc2cc(Oc3ccccc3)ccc12 [Example 83, 1-(4-(Diethylamino)-7-phenoxyquinazolin-2-yl)-1H-pyrazole-4-carboxylic acid] | 7.7 | 25%
CCN(CC)c1nc(-n2cc(C(=O)O)cn2)nc2ccc(Oc3ccc(Cl)cc3)cc12 [Example 60, 1-(6-(4-Chlorophenoxy)-4-(diethylamino)quinazolin-2-yl)-1H-pyrazole-4-carboxylic acid] | 7.3 | 22%
CN(C)c1nc(-n2cc(C(=O)O)cn2)nc2cc(Oc3ccccc3)ccc12 [Example 77, 1-(4-(Dimethylamino)-7-phenoxyquinazolin-2-yl)-1H-pyrazole-4-carboxylic acid] | 7.4 | 75%
N#CNc1nc(-n2cc(C(=O)O)cn2)nc2ccc(C3CCCCC3)cc12 [Example 35, 1-(4-Cyanamido-6-cyclohexylquinazolin-2-yl)-1H-pyrazole-4-carboxylic acid] | 7.2 | 67%
O=C(O)c1cnn(-c2nc(N3CCCC3)c3cc(C4CCCCC4)ccc3n2)c1 [Example 25, 1-(6-Cyclohexyl-4-(pyrrolidin-1-yl)quinazolin-2-yl)-1H-pyrazole-4-carboxylic acid] | 6.4 | 39%
CCCN(CCC)c1nc(-n2cc(C(=O)O)cn2)nc2cc(F)c(Oc3c(C)cccc3C)cc12 [Example 12, 1-[6-(2,6-Dimethyl-phenoxy)-4-dipropylamino-7-fluoro-quinazolin-2-yl]-1H-pyrazole-4-carboxylic acid] | 7.4 | 9%
CC(=O)NC1CCN(c2nc(-n3cc(C(=O)O)cn3)nc3ccc(Oc4ccc(Cl)cc4)cc23)CC1 [Example 70, 1-(4-(4-Acetamidopiperidin-1-yl)-6-(4-chlorophenoxy)quinazolin-2-yl)-1H-pyrazole-4-carboxylic acid] | 7.1 | 16%
O=C(O)c1cnn(-c2nc(N3CCCCCC3)c3cc(C4CCCCC4)ccc3n2)c1 [Example 37, 1-(4-(Azepan-1-yl)-6-cyclohexylquinazolin-2-yl)-1H-pyrazole-4-carboxylic acid] | 7.1 | 17%
O=C(O)c1cnn(-c2nc(N3CCCCC3)c3ccc(Oc4ccccc4)cc3n2)c1 [Example 79, 1-(7-Phenoxy-4-(piperidin-1-yl)quinazolin-2-yl)-1H-pyrazole-4-carboxylic acid] | 7.0 | 38%
Cc1cccc(C)c1Oc1cc2c(NCC3CCCCC3)nc(-n3cc(C(=O)O)cn3)nc2cc1F [Example 13, 1-(4-((Cyclohexylmethyl)amino)-6-(2,6-dimethylphenoxy)-7-fluoroquinazolin-2-yl)-1H-pyrazole-4-carboxylic acid] | 6.9 | 10%
O=C(O)c1cnn(-c2nc(N3CCCCC3)c3cc(Oc4ccc(Cl)cc4)ccc3n2)c1 [Example 63, 1-(6-(4-Chlorophenoxy)-4-(piperidin-1-yl)quinazolin-2-yl)-1H-pyrazole-4-carboxylic acid] | 7.6 | 39%
CNc1nc(-n2cc(C(=O)O)cn2)nc2ccc(C3CCCCC3)cc12 [Example 22, 1-(6-Cyclohexyl-4-methylamino-quinazolin-2-yl)-1H-pyrazole-4-carboxylic acid] | 7.1 | 48%
CN(C)c1nc(-n2cc(C(=O)O)cn2)nc2cc(F)c(OC3CCCCC3)cc12 [Example 101, 1-(7-fluoro-6-(cyclohexyloxy)-4-(dimethylamino)quinazolin-2-yl)-1H-pyrazole-4-carboxylic acid] | 7.1 | 85%
Cc1cccc(C)c1Oc1cc2c(N3CCCCC3)nc(-n3cc(C(=O)O)cn3)nc2cc1F [Example 4, 1-[6-(2,6-Dimethyl-phenoxy)-7-fluoro-4-piperidin-1-yl-quinazolin-2-yl]-1H-pyrazole-4-carboxylic acid] | 6.9 | 17%

Continued, in another order:

Enzyme pIC50 (PHD2181-417) | Structure (SMILES) | activation at 100 µM [1]
7.3 | CCN(C)c1nc(-n2cc(C(=O)O)cn2)nc2ccc(OC3CCCCC3)cc12 [Example 177, 1-(6-(cyclohexyloxy)-4-(ethyl(methyl)amino)quinazolin-2-yl)-1H-pyrazole-4-carboxylic acid] | 56%
7.5 | CCN(CC)c1nc(-n2cc(C(=O)O)cn2)nc2cc(F)c(OC3CCCCC3)cc12 [Example 102, 1-(6-(Cyclohexyloxy)-4-(diethylamino)-7-fluoroquinazolin-2-yl)-1H-pyrazole-4-carboxylic acid] | 37%
7.0 | CC(C)c1ccc2nc(-n3cc(C(=O)O)cn3)nc(N(C)C)c2c1 [Example 185, 1-(4-(dimethylamino)-6-isopropylquinazolin-2-yl)-1H-pyrazole-4-carboxylic acid] | 62%
7.4 | CN(C)c1nc(-n2cc(C(=O)O)cn2)nc2ccc(OC3CCCCC3)cc12 [Example 173, 1-(6-(cyclohexyloxy)-4-(dimethylamino)quinazolin-2-yl)-1H-pyrazole-4-carboxylic acid] | 62%
7.1 | CCN(C)c1nc(-n2cc(C(=O)O)cn2)nc2cc(F)c(OC3CCCCC3)cc12 [Example 104, 1-(7-fluoro-6-(cyclohexyloxy)-4-(ethyl(methyl)amino)quinazolin-2-yl)-1H-pyrazole-4-carboxylic acid] | 49%
7.0 | CCN(CC)c1nc(-n2cc(C(=O)O)cn2)nc2ccc(C(C)C)cc12 [Example 186, 1-(4-(diethylamino)-6-isopropylquinazolin-2-yl)-1H-pyrazole-4-carboxylic acid] | 43%
7.3 | CC(C)c1cc2c(N3CCCC3)nc(-n3cc(C(=O)O)cn3)nc2cc1Cl [Example 163, 1-(7-chloro-4-(pyrrolidin-1-yl)-6-isopropylquinazolin-2-yl)-1H-pyrazole-4-carboxylic acid] | 26%
6.8 | O=C(O)c1cnn(-c2nc(NC3CC3)c3cc(OC4CCCCC4)ccc3n2)c1 [Example 176, 1-(6-(cyclohexyloxy)-4-(cyclopropylamino)quinazolin-2-yl)-1H-pyrazole-4-carboxylic acid] | 35%

— patent publication US10246442B2, “4-Aminoquinazolin compounds as prolyl hydroxylase inhibitors” (JANSSEN PHARMACEUTICA NV, priority 2011, dated 2019)
